The text below walks through data of US11660306B2, “Treatment of Rett syndrome” (Cold Spring Harbor Laboratory, priority 2014, dated 2023).

In test [1] the test system is PTP1B. Kind of test: Reversibility of PTP1B inhibition by triterpenes (Table 2). Type of test: biochemical.
In the next test the target is PTP1B321 (Homo sapiens, UniProt P18031). Kind of test: Triterpene inhibition of PTP1B321 (Table 2). It is filed as biochemical.
For a further test, the target named is PTP1B405 (Homo sapiens, UniProt P18031). Briefly: Triterpene inhibition of PTP1B405 (Table 2). It is filed as biochemical.
The subject of the next test is Mecp2 mutant mice. Briefly: Anti-diabetic small molecules in Mecp2 mutant mice (FIG. 6D).
The subject of test [2] is Mecp2−/y mice. Briefly: Survival of Mecp2-null male mice. The settings on record: for survival (in words): Mecp2-null male mice, 5 mg/kg.
For test [3], the system named is Mecp2−/y mice. Kind of test: Glucose tolerance test in Mecp2−/y male mice. The following applies: 5 mg/Kg, two weeks after treatment.
Test [4] relates to panel of six PTPs and two dual-specificity phosphatases. Briefly: Specificity against a panel of phosphatases. It is filed as biochemical. As for the experimental part:
(§1) In this example, in order to determine the significance of the elevated PTP1B levels in animal models of Rett syndrome, the effects of small molecule inhibitors of the phosphatase were tested. Using para-Nitro Phenyl Phosphate (pNPP) as substrate, PTP1B inhibition by CPT157633 was studied (FIG. 13A). […] To obtain structural insights into the PTP1B-CPT157633 interaction, both biomolecular NMR spectroscopy and X-ray crystallography were used. Residues 1-301 from the catalytic domain of PTP1B were expressed in D2O-based medium and 2D [^1H,^15N] TROSY spectra were recorded in the absence and presence of CPT157633. […] This was confirmed by the crystal structure of the PTP1B:CTP157633 complex, which illustrated a non-covalent interaction. Electrostatic interactions made by the compound to critical active site residues are highlighted in FIG. 13G.
(§2) A second inhibitor of PTP1B that exerts its effect on the enzyme by a different mechanism was characterized. […] It inhibited PTP1B with selectivity compared to a panel of eight phosphatases investigated.

Test [5] deals with PTP1B (Homo sapiens (Human), UniProt P18031). Briefly: PTP1B phosphatase inhibition. It is filed as biochemical. As for the experimental part:
as §1, §2

PTP1B (Homo sapiens (Human), UniProt P18031), sequence (P18031 whole entry): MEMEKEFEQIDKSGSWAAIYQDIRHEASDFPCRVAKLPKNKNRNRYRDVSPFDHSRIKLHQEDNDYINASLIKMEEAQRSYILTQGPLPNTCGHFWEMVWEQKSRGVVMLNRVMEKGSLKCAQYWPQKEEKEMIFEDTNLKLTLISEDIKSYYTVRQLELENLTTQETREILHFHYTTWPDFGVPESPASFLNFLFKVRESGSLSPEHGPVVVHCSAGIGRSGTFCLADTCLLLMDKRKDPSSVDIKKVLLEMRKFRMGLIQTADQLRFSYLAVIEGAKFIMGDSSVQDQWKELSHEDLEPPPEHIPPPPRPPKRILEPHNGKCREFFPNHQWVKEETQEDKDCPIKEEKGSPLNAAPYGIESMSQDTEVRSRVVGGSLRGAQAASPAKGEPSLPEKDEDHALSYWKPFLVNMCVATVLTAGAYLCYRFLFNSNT

Consider `CC1(C)[C@@H](O)CC[C@]2(C)[C@H]3C(=O)C=C4[C@@H]5C[C@@](C)(C(=O)O)CC[C@]5(C)CC[C@@]4(C)[C@]3(C)CC[C@@H]12`, for which the Reversibility entry with PTP1B [1] is listed as “Reversible”.
As usually defined, the Ki is a measure of affinity in units of concentration, obtained from inhibition or displacement. A high value points to a looser hold on the target. Regarding `CC1=C(O)C(=O)C=C2C1=CC=C1[C@@]2(C)CC[C@@]2(C)[C@@H]3C[C@](C)(C(=O)O)CC[C@]3(C)CC[C@]12C`, the inhibition constant (Ki) at PTP1B321 and at PTP1B405 was 10 µM throughout. Moreover, the Reversibility result in the test with PTP1B [1] was “Irreversible”.
With `COC(=O)[C@]1(C)CC[C@]2(C)CC[C@]3(C)C4=CC=C5C(=CC(=O)C(O)=C5C)[C@]4(C)CC[C@@]3(C)[C@@H]2C1`, the Ki on PTP1B321 is 10 µM; on PTP1B405 it was 8 µM. In the test with PTP1B [1], the Reversibility entry is on record as “Irreversible”.
For `CC1(C)CC[C@]2(C(=O)O)CC[C@]3(C)C(=CCC4[C@@]5(C)C[C@@H](O)[C@H](O)C(C)(C)[C@@H]5CC[C@]43C)[C@@H]2C1` (stereo partly drawn), in that order: 10 µM, 5.7 µM and “Reversible”.
For `CC1(C)CC[C@]2(C(=O)O)CC[C@]3(C)C(=CC[C@@H]4[C@@]5(C)C[C@@H](O)[C@H](O)[C@@](C)(CO)[C@@H]5CC[C@]43C)[C@@H]2C1`, in that order: 8.3 µM, 7 µM and “Reversible”.
For `CC1(C)CC[C@]2(C(=O)O)CC[C@]3(C)C(=CC[C@@H]4[C@@]5(C)CC[C@H](O)[C@@](C)(CO)[C@@H]5CC[C@]43C)[C@@H]2C1`, in that order: 3.6 µM, 2 µM and “Reversible”.
In the case of `C=C(C)[C@@H]1CC[C@]2(CO)CC[C@]3(C)[C@H](CC[C@@H]4[C@@]5(C)CC[C@H](O)C(C)(C)[C@@H]5CC[C@]43C)[C@@H]12`, the figures for the inhibition constant (Ki) on PTP1B321 and at PTP1B405 were 3 µM and 2 µM, respectively. Also, in the test on PTP1B [1], the Reversibility entry was “Reversible”.
On to `C=C(C)[C@@H]1CC[C@]2(C)CC[C@]3(C)[C@H](CC[C@@H]4[C@@]5(C)CC[C@H](O)C(C)(C)[C@@H]5CC[C@]43C)[C@@H]12`, for which the inhibition constant (Ki) is 2.5 µM on PTP1B321 and 1.5 µM on PTP1B405. Besides, the Reversibility result in the test with PTP1B [1] is recorded as “Reversible”.
`C[C@H]1[C@H](C)CC[C@]2(CO)CC[C@]3(C)C(=CC[C@@H]4[C@@]5(C)CC[C@H](O)C(C)(C)[C@@H]5CC[C@]43C)[C@H]12`: the Reversibility result in the test on PTP1B [1] is reported as “Reversible”.
Same read-out and setting: then `C[C@H]1[C@H](C)CC[C@]2(C(=O)O)CC[C@]3(C)C(=CC[C@@H]4[C@@]5(C)CC[C@H](O)C(C)(C)C5CC[C@]43C)[C@H]12` (stereo partly drawn), with “Reversible”.
On to `C=C(C)C1CC[C@]2(C(=O)O)CC[C@]3(C)[C@H](CC[C@@H]4[C@@]5(C)CC[C@H](O)C(C)(C)[C@@H]5CC[C@]43C)[C@@H]12` (stereo partly drawn), for which the Ki at PTP1B321 amounted to 3 µM; at PTP1B405 it was 0.7 µM. In the test with PTP1B [1], the Reversibility entry was “Irreversible”.
For `C[C@H]1[C@H](C)CC[C@]2(C(=O)O)CC[C@]3(C)C(=CC[C@@H]4[C@@]5(C)C[C@@H](O)[C@H](O)C(C)(C)[C@@H]5CC[C@]43C)[C@H]12`, the Ki at PTP1B321 is 3 µM; at PTP1B405, 1.5 µM. Further, the Reversibility result in the test on PTP1B [1] is listed as “Irreversible”.
Regarding `CC1(C)CC[C@]2(C(=O)O)CC[C@]3(C)C(=CC[C@@H]4[C@@]5(C)CC[C@H](O)C(C)(C)[C@@H]5CC[C@]43C)[C@@H]2C1`, the Reversibility entry in the test on PTP1B [1] was “Reversible”.
For the compound `CC1(C)CC[C@]2(C)CC[C@]3(C)C(=CC[C@@H]4[C@@]5(C)CC[C@@H](O)[C@](C)(C(=O)O)[C@@H]5CC[C@]43C)[C@@H]2C1`, the inhibition constant (Ki) worked out at 6 µM at PTP1B321 and 4 µM on PTP1B405. For the same compound, the Reversibility entry in the test on PTP1B [1] was “Reversible”.
Turning to `C[C@H]1C(=O)CC[C@H]2[C@]1(C)CC[C@]13C[C@@]14CC[C@@]1(C)CCC(C)(C)C[C@]15C[C@]54CC[C@@]23C`, the values for the inhibition constant (Ki) on PTP1B321 and at PTP1B405 were 4 µM and 2 µM, respectively. The Reversibility result with PTP1B [1] is listed as “Reversible”.
For `COC[C@]12CC[C@@H](C)[C@H](C)[C@H]1[C@@]1(O)C=C[C@@H]3[C@@]4(C)CCC(=O)C(C)(C)[C@@H]4CC[C@@]3(C)[C@]1(C)CC2`, in that order: 15 µM, 15 µM and “Reversible”.
The corresponding values for `CC1CCC23CCC4(C)C5(C)CCC6C(C)(C)C(=O)CCC6(C)C5C=CC4(OC2)C3C1C` (stereo not drawn) are 13 µM, 11 µM and “Reversible”.
The corresponding values for `CC1(C)C=C2[C@H]3CC[C@@H]4[C@@]5(C)CCC(=O)C(C)(C)[C@@H]5CC[C@@]4(C)[C@]3(C)CC[C@@]2(C(=O)O)CC1` are 7 µM, 5 µM and “Reversible”.
For the compound `C[C@H]1[C@H](C)CC[C@]2(C)CC[C@]3(C)C(=CC[C@@H]4[C@@]5(C)CC[C@H](O)C(C)(C)[C@@H]5CC[C@]43C)[C@H]12`, the Ki at PTP1B321 came to 6 µM; at PTP1B405 it was 4 µM. The Reversibility entry with PTP1B [1] is on record as “Irreversible”.
The corresponding values for `C=C(C)[C@@H]1CC[C@]2(C(=O)O)CC[C@]3(C)[C@H](CC[C@@H]4[C@@]5(C)CC[C@H](OC(=O)CC(C)(C)C(=O)O)C(C)(C)[C@@H]5CC[C@]43C)[C@@H]12` are 7 µM, 4.4 µM and “Irreversible”.
For `CC(C)[C@H]1CC[C@]2(C)[C@H]3CC[C@@H]4[C@@]5(C)CCCC(C)(C)[C@@H]5CC[C@@]4(C)[C@]3(C)CC[C@@H]12`, in that order: 9 µM, 5.7 µM and “Reversible”.
As to `CC1(C)CC[C@]2(C)CC[C@]3(C)[C@H](CC[C@@H]4[C@@]5(C)CCCC(C)(C)[C@@H]5CC[C@]43C)[C@@H]2C1`, the Ki on PTP1B321 worked out at 15 µM; at PTP1B405 it was 9 µM. The Reversibility entry in the test with PTP1B [1] was “Reversible”.
For `CC1(C)[C@@H](OC(=O)CCC(=O)O)CC[C@]2(C)[C@H]3C(=O)C=C4[C@@H]5C[C@@](C)(C(=O)O)CC[C@]5(C)CC[C@@]4(C)[C@]3(C)CC[C@@H]12`, in that order: 7 µM, 5 µM and “Reversible”.
For `CC1(C)CCC[C@](C)([C@H]2CC[C@]3(C)[C@@H]2[C@H](O)C[C@@H]2[C@@]4(C)CC[C@H](O)C(C)(C)[C@@H]4[C@H](O)C[C@]23C)O1`, in that order: 14 µM, 10 µM and “Reversible”.
The corresponding values for `CC1(C)CC[C@]2(C)CC=C3C(C)(CC[C@@H]4[C@@]5(C)CC[C@H](O)C(C)(C)[C@@H]5CC[C@@]34C)[C@@H]2C1` (stereo partly drawn) are 8 µM, 5 µM and “Reversible”.
In the case of `CC/C=C/C(C)(O)OCC1(C)C(=O)CCC2(C)C1CCC1(C)C2CCC2C3C(C)C(C)CCC3(C)CCC21C` (stereo not drawn), the Ki worked out at 18 µM on PTP1B321 and 22 µM at PTP1B405. The Reversibility entry in the test on PTP1B [1] is reported as “Reversible”.
For `C[C@H]1CC[C@@]2(OC1)O[C@H]1C[C@H]3[C@@H]4CC=C5C[C@@H](O)CC[C@]5(C)[C@H]4CC[C@]3(C)[C@H]1[C@@H]2C`, in that order: 36 µM, 25 µM and “Reversible”.
As for `NC(=O)c1ncn([C@@H]2O[C@H](CO)[C@@H](O)[C@H]2O)c1N` [AICAR], the “effectiveness compared with PTP1B inhibitors” value in the test on Mecp2 mutant mice is on record as “none of the three inhibitors were as effective as PTP1B inhibitors”.
With `C[C@@H]1CC[C@]2(C(=O)O)CC[C@]3(C)C(=CCC4[C@@]5(C)CC[C@H](O)C(C)(C)C5CC[C@]43C)C2[C@H]1C` (stereo partly drawn) [UA001, ursolic acid, reference compound], the “survival (in words)” value in the test with Mecp2−/y mice [2] was “improved the survival”.
With `C[C@@H]1CC[C@]2(C(=O)NCCCCCCCCCCC(=O)N[C@@H](Cc3ccccc3)C(=O)O)CC[C@]3(C)C(=CCC4[C@@]5(C)CC[C@H](O)C(C)(C)C5CC[C@]43C)C2[C@H]1C` (stereo partly drawn) [UA0713], the glucose intolerance entry in the test with Mecp2−/y mice [3] is reported as “markedly reduced”. Moreover, the “survival (in words)” value in the test with Mecp2−/y mice [2] is reported as “improved the survival”. This compound showed an increase in survival with Mecp2−/y mice [2] (Mecp2−/y male mice, 5 mg/Kg, versus saline) of 2 fold. Moreover, the median life-span with Mecp2−/y mice [2] (Mecp2−/y male mice, 5 mg/Kg, saline 40 days) was 95 days. The “effect against phosphatase panel compared to PTP1B” value in test [4] was “selectivity”. For the same compound, at PTP1B [5], the “mode of inhibition of PTP1B” value is reported as “non-competitive”. On PTP1B [5] (substrate not stated), the Ki is 0.15 µM.
For the compound `CN(C)C(=N)N=C(N)N` [metformin], in the test with Mecp2 mutant mice, the “effectiveness compared with PTP1B inhibitors” value is on record as “none of the three inhibitors were as effective as PTP1B inhibitors”.
Consider `CN(CCOc1ccc(CC2SC(=O)NC2=O)cc1)c1ccccn1` (stereo not drawn) [rosiglitazone], for which the “effectiveness compared with PTP1B inhibitors” value with Mecp2 mutant mice is given as “none of the three inhibitors were as effective as PTP1B inhibitors”.
